Test results as given in the NIST ThermoML archive (doi:10.1016/j.tca.2017.04.014).
± gives the expanded uncertainty stated by the source.

Key:
[1] = molar heat capacity at constant pressure; conditions: 101.33 kPa, Crystal, DSC
[2] = 298.15 K, 101.3 kPa, Crystal
[3] = xn = mol fraction of the nth substance listed; conditions: 298.15 K, 101.3 kPa, Crystal, x2 = 0
[4] = molar heat capacity at constant pressure; xn = mol fraction of the nth substance listed; conditions: 101.3 kPa, Crystal, DSC, x2 = 0

[O-2].[O-2].[U+4] [uranium dioxide]
Conditions	mass density [kg/m3]	molar heat capacity at constant pressure [J/K/mol]
[1], 300 K	–	64.6 ± 7
[1], 310 K	–	66.2 ± 7.6
[1], 320 K	–	66.8 ± 7.4
[1], 330 K	–	67.7 ± 7.6
[1], 340 K	–	68.7 ± 7.6
[1], 350 K	–	69.1 ± 6.9
[1], 360 K	–	69.5 ± 7.8
[1], 370 K	–	70.5 ± 8
[1], 380 K	–	71.2 ± 7.8
[1], 390 K	–	71.2 ± 7.1
[1], 400 K	–	72.5 ± 8
[1], 410 K	–	72.8 ± 8.4
[1], 420 K	–	73.4 ± 7.3
[1], 430 K	–	73.5 ± 7.5
[1], 440 K	–	74.4 ± 6.4
[1], 450 K	–	74.6 ± 6.6
[1], 460 K	–	74.9 ± 6.9
[1], 470 K	–	75.5 ± 8.8
[1], 480 K	–	76.2 ± 7.3
[1], 490 K	–	76.4 ± 5.5
[1], 500 K	–	76.5 ± 7.5
[1], 510 K	–	76.6 ± 5.5
[1], 520 K	–	76.7 ± 7
[1], 530 K	–	77.1 ± 5.5
[1], 540 K	–	77 ± 5.7
[1], 550 K	–	77.1 ± 5.9
[1], 560 K	–	77.3 ± 7.1
[1], 570 K	–	77.9 ± 7.7
[1], 580 K	–	78.2 ± 7.5
[1], 590 K	–	79 ± 6.3
[1], 600 K	–	79.1 ± 9.2
[1], 610 K	–	79.7 ± 3.7
[1], 620 K	–	79.4 ± 3.3
[1], 630 K	–	79.6 ± 7.9
[1], 640 K	–	80.3 ± 4.1
[1], 650 K	–	79.8 ± 4.3
[1], 660 K	–	80.5 ± 6.5
[1], 670 K	–	80.5 ± 4.3
[1], 680 K	–	80.7 ± 5.9
[1], 690 K	–	81.1 ± 3.3
[1], 700 K	–	80.4 ± 3.4
[1], 710 K	–	80.8 ± 4.4
[1], 720 K	–	81.2 ± 3.5
[1], 730 K	–	81.7 ± 4.5
[1], 740 K	–	82.2 ± 4.6
[1], 750 K	–	82.9 ± 3.4
[1], 760 K	–	82.4 ± 4.6
[1], 770 K	–	82.7 ± 4.6
[1], 780 K	–	83.4 ± 4.5
[1], 790 K	–	83.9 ± 4.5
[1], 800 K	–	83.7 ± 4.2
[1], 810 K	–	84.1 ± 4.2
[1], 820 K	–	83.8 ± 4.8
[1], 830 K	–	84.2 ± 4.8
[1], 840 K	–	84.1 ± 4.8
[1], 850 K	–	83.7 ± 3.5
[1], 860 K	–	84.1 ± 4.4
[1], 870 K	–	84.5 ± 4.4
[2], From pellet mass and volume	10570 ± 2100	–
[2], X-ray diffraction	10970 ± 40	–
[2], buoyancy	10660 ± 2100	–

[O-2].[O-2].[U+4] [uranium dioxide] + [O-2].[O-2].[Th+4]
Conditions	mass density [kg/m3]	molar heat capacity at constant pressure [J/K/mol]
[3], From pellet mass and volume	10570 ± 2100	–
[3], X-ray diffraction	10970 ± 40	–
[3], buoyancy	10660 ± 2100	–
[4], 300 K	–	64.6 ± 7
[4], 310 K	–	66.2 ± 7.6
[4], 320 K	–	66.8 ± 7.4
[4], 330 K	–	67.7 ± 7.6
[4], 340 K	–	68.7 ± 7.6
[4], 350 K	–	69.1 ± 6.9
[4], 360 K	–	69.5 ± 7.8
[4], 370 K	–	70.5 ± 8
[4], 380 K	–	71.2 ± 7.8
[4], 390 K	–	71.2 ± 7.1
[4], 400 K	–	72.5 ± 8
[4], 410 K	–	72.8 ± 8.4
[4], 420 K	–	73.4 ± 7.3
[4], 430 K	–	73.5 ± 7.5
[4], 440 K	–	74.4 ± 6.4
[4], 450 K	–	74.6 ± 6.6
[4], 460 K	–	74.9 ± 6.9
[4], 470 K	–	75.5 ± 8.8
[4], 480 K	–	76.2 ± 7.3
[4], 490 K	–	76.4 ± 5.5
[4], 500 K	–	76.5 ± 7.5
[4], 510 K	–	76.6 ± 5.5
[4], 520 K	–	76.7 ± 7
[4], 530 K	–	77.1 ± 5.5
[4], 540 K	–	77 ± 5.7
[4], 550 K	–	77.1 ± 5.9
[4], 560 K	–	77.3 ± 7.1
[4], 570 K	–	77.9 ± 7.7
[4], 580 K	–	78.2 ± 7.5
[4], 590 K	–	79 ± 6.3
[4], 600 K	–	79.1 ± 9.2
[4], 610 K	–	79.7 ± 3.7
[4], 620 K	–	79.4 ± 3.3
[4], 630 K	–	79.6 ± 7.9
[4], 640 K	–	80.3 ± 4.1
[4], 650 K	–	79.8 ± 4.3
[4], 660 K	–	80.5 ± 6.5
[4], 670 K	–	80.5 ± 4.3
[4], 680 K	–	80.7 ± 5.9
[4], 690 K	–	81.1 ± 3.3
[4], 700 K	–	80.4 ± 3.4
[4], 710 K	–	80.8 ± 4.4
[4], 720 K	–	81.2 ± 3.5
[4], 730 K	–	81.7 ± 4.5
[4], 740 K	–	82.2 ± 4.6
[4], 750 K	–	82.9 ± 3.4
[4], 760 K	–	82.4 ± 4.6
[4], 770 K	–	82.7 ± 4.6
[4], 780 K	–	83.4 ± 4.5
[4], 790 K	–	83.9 ± 4.5
[4], 800 K	–	83.7 ± 4.2
[4], 810 K	–	84.1 ± 4.2
[4], 820 K	–	83.8 ± 4.8
[4], 830 K	–	84.2 ± 4.8
[4], 840 K	–	84.1 ± 4.8
[4], 850 K	–	83.7 ± 3.5
[4], 860 K	–	84.1 ± 4.4
[4], 870 K	–	84.5 ± 4.4

[O-2].[O-2].[Th+4] [thorium dioxide]
Conditions	mass density [kg/m3]	molar heat capacity at constant pressure [J/K/mol]
[1], 300 K	–	62.1 ± 7.7
[1], 310 K	–	61.8 ± 6.4
[1], 320 K	–	62.8 ± 7.3
[1], 330 K	–	63.5 ± 6
[1], 340 K	–	64.2 ± 5.5
[1], 350 K	–	65.1 ± 6.8
[1], 360 K	–	65.6 ± 6.8
[1], 370 K	–	65.9 ± 6.8
[1], 380 K	–	66.8 ± 7.2
[1], 390 K	–	67.3 ± 7.2
[1], 400 K	–	67.7 ± 6.8
[1], 410 K	–	68 ± 6.8
[1], 420 K	–	68.4 ± 6.8
[1], 430 K	–	68.6 ± 7.2
[1], 440 K	–	68.9 ± 7.4
[1], 450 K	–	69.6 ± 7.4
[1], 460 K	–	69.8 ± 7.2
[1], 470 K	–	70.1 ± 8.2
[1], 480 K	–	70.2 ± 7.4
[1], 490 K	–	70.5 ± 6.1
[1], 500 K	–	70.7 ± 7.1
[1], 510 K	–	70.9 ± 6.3
[1], 520 K	–	71.2 ± 6.5
[1], 530 K	–	71.4 ± 6.5
[1], 540 K	–	71.7 ± 6.5
[1], 550 K	–	71.9 ± 7.1
[1], 560 K	–	72 ± 5.4
[1], 570 K	–	72.1 ± 6.5
[1], 580 K	–	72.3 ± 5.1
[1], 590 K	–	72.5 ± 5.3
[1], 600 K	–	72.5 ± 7.1
[1], 610 K	–	72.5 ± 5.3
[1], 620 K	–	73 ± 5.3
[1], 630 K	–	73 ± 5.8
[1], 640 K	–	73.3 ± 3.8
[1], 650 K	–	73.6 ± 5.5
[1], 660 K	–	73.5 ± 4
[1], 670 K	–	73.6 ± 3.8
[1], 680 K	–	73.6 ± 7.1
[1], 690 K	–	73.4 ± 4
[1], 700 K	–	73.8 ± 4
[1], 710 K	–	74.5 ± 4
[1], 720 K	–	74.5 ± 4
[1], 730 K	–	74.6 ± 3.8
[1], 739 K	–	74.7 ± 3.7
[1], 750 K	–	74.6 ± 3.2
[1], 760 K	–	75 ± 3.3
[1], 770 K	–	75.3 ± 3.9
[1], 780 K	–	75.3 ± 3.7
[1], 790 K	–	75.3 ± 3.7
[1], 800 K	–	75.7 ± 3.2
[1], 810 K	–	75.7 ± 3.3
[1], 820 K	–	75.7 ± 3.3
[1], 830 K	–	75.9 ± 3.5
[1], 840 K	–	76 ± 3.7
[1], 850 K	–	76.1 ± 4.3
[1], 860 K	–	76.4 ± 4
[1], 870 K	–	76.1 ± 4.2
[2], From pellet mass and volume	9390 ± 1900	–
[2], X-ray diffraction	10000 ± 30	–
[2], buoyancy	9430 ± 1900	–
